# Assay results taken from ChEMBL document CHEMBL5661980, “Discovery of OSI-906: a selective and orally efficacious dual inhibitor of the IGF-1 receptor and insulin receptor” (Future Med Chem, 2009).
# What was measured:
# [1] = AUC last in CD-1 mouse measured at 5 mg/kg, po for 1 to 24 hrs by HPLC-MS/MS analysis; format: ADME, organism-based; conditions: in vivo, time 1-24 hrs
# [2] = AUC last in Sprague-Dawley rat measured at 12.5 mg/kg, po for 1 to 24 hrs by HPLC-MS/MS analysis; format: ADME, organism-based; conditions: in vivo, time 1-24 hrs
# [3] = Oral bioavailability in Sprague-Dawley rat measured at 100 mg/kg for 1 to 24 hrs by HPLC-MS/MS analysis; format: ADME, organism-based; conditions: in vivo, time 1-24 hrs
# [4] = Elimination half life in CD-1 mouse measured at 5 mg/kg, iv for 1 to 24 hrs by HPLC-MS/MS analysis; format: ADME, organism-based; conditions: in vivo, time 1-24 hrs, read-out: beta t1/2 (converted)
# [5] = Elimination half life in Sprague-Dawley rat measured at 5 mg/kg, iv for 1 to 24 hrs by HPLC-MS/MS analysis; format: ADME, organism-based; conditions: in vivo, time 1-24 hrs, read-out: beta t1/2 (converted)
# [6] = biological target: Cytochrome P450 3A4 (Homo sapiens, UniProt P08684); experiment: Inhibition of CYP3A4 (unknown origin) using luciferin as substrate in presence of NADPH generating system incubated for 20 mins by luminescent method; format: ADME
# [7] = In vivo inhibition of IGF-1R phosphorylation in athymic nu/nu CD-1 mouse allografted with mouse 3T3 cells expressing human IGF-1R at 75 mg/kg, po measured after 4 to 24 hrs relative to control; format: functional; conditions: nu/nu CD-1, NIH3T3, time 4-24 hrs
# [8] = AUC last in CD-1 mouse measured at 75 mg/kg, po for 1 to 24 hrs by HPLC-MS/MS analysis; format: ADME, organism-based; conditions: in vivo, time 1-24 hrs
# [9] = Plasma concentration in athymic nu/nu CD-1 mouse allografted with mouse 3T3 cells expressing human IGF-1R at 75 mg/kg, po measured after 24 hrs; format: ADME, organism-based, NIH3T3
# [10] = Oral bioavailability in CD-1 mouse measured at 75 mg/kg for 1 to 24 hrs by HPLC-MS/MS analysis; format: ADME, organism-based; conditions: in vivo, time 1-24 hrs
# [11] = Toxicity in athymic nu/nu CD-1 mouse allografted with mouse 3T3 cells expressing human IGF-1R assessed as loss in body weight at 75 mg/kg, po for 12 days relative to control; format: organism-based, NIH3T3; conditions: in vivo, 288 h, time 12 day
# [12] = tested on: NIH3T3; experiment: Antitumor activity against mouse 3T3 cells allografted in athymic nu/nu CD-1 mouse assessed as tumor growth inhibition at 25 mg/kg, po for 12 days relative to control; format: functional; conditions: NIH3T3, 288 h, time 12 day, read-out: TGI
# [13] = Clearance in CD-1 mouse measured at 5 mg/kg, iv for 1 to 24 hrs by HPLC-MS/MS analysis; format: ADME, organism-based; conditions: in vivo, time 1-24 hrs
# [14] = AUC (0 to infinity) in Sprague-Dawley rat measured at 5 mg/kg, iv for 1 to 24 hrs by HPLC-MS/MS analysis; format: ADME, organism-based; conditions: in vivo, time 1-24 hrs
# [15] = Volume of distribution at steady state in CD-1 mouse measured at 5 mg/kg, iv for 1 to 24 hrs by HPLC-MS/MS analysis; format: ADME, organism-based; conditions: in vivo, time 1-24 hrs, read-out: Vdss
# [16] = Cmax in CD-1 mouse measured at 5 mg/kg, po for 1 to 24 hrs by HPLC-MS/MS analysis; format: ADME, organism-based; conditions: in vivo, time 1-24 hrs
# [17] = Volume of distribution at steady state in Beagle dog measured at 2.5 mg/kg, iv for 1 to 24 hrs by HPLC-MS/MS analysis; format: ADME, organism-based, Canis lupus familiaris; conditions: in vivo, time 1-24 hrs, read-out: Vdss
# [18] = Toxicity in athymic nu/nu CD-1 mouse allografted with mouse 3T3 cells expressing human IGF-1R assessed as hyperglycemia at 75 mg/kg, po for 12 days; format: organism-based, NIH3T3; conditions: in vivo, 288 h, time 12 day
# [19] = AUC last in CD-1 mouse measured at 250 mg/kg, po for 1 to 24 hrs by HPLC-MS/MS analysis; format: ADME, organism-based; conditions: in vivo, time 1-24 hrs
# [20] = biological target: Cytochrome P450 2D6 (Homo sapiens, UniProt P10635); experiment: Inhibition of CYP2D6 (unknown origin) in presence of NADPH generating system incubated for 20 mins by luminescent method; format: ADME
# [21] = Oral bioavailability in CD-1 mouse measured at 5 mg/kg for 1 to 24 hrs by HPLC-MS/MS analysis; format: ADME, organism-based; conditions: in vivo, time 1-24 hrs
# [22] = tested on: NIH3T3; experiment: Antitumor activity against mouse 3T3 cells allografted in athymic nu/nu CD-1 mouse assessed as tumor growth inhibition at 75 mg/kg, po for 12 days relative to control; format: functional; conditions: NIH3T3, 288 h, time 12 day, read-out: TGI
# [23] = AUC last in Beagle dog measured at 5 mg/kg, po for 1 to 24 hrs by HPLC-MS/MS analysis; format: ADME, organism-based, Canis lupus familiaris; conditions: in vivo, time 1-24 hrs
# [24] = biological target: Platelet-derived growth factor receptor (Homo sapiens, UniProt P09619+P16234); experiment: Inhibition of PDGFR-alpha/beta (unknown origin) in presence of ATP Km treated at 2 hrs followed by […] ligand addition for 15 mins by ELISA analysis
# [25] = Oral bioavailability in CD-1 mouse measured at 250 mg/kg for 1 to 24 hrs by HPLC-MS/MS analysis; format: ADME, organism-based; conditions: in vivo, time 1-24 hrs
# [26] = Cmax in Sprague-Dawley rat measured at 12.5 mg/kg, po for 1 to 24 hrs by HPLC-MS/MS analysis; format: ADME, organism-based; conditions: in vivo, time 1-24 hrs
# [27] = tested on: NIH3T3; experiment: Antitumor activity against mouse 3T3 cells allografted in athymic nu/nu CD-1 mouse assessed as tumor regression at 25 mg/kg, po for 12 days relative to control; format: functional; conditions: time 12 day
# [28] = Volume of distribution at steady state in Sprague-Dawley rat measured at 5 mg/kg, iv for 1 to 24 hrs by HPLC-MS/MS analysis; format: ADME, organism-based; conditions: in vivo, time 1-24 hrs, read-out: Vdss
# [29] = Oral bioavailability in CD-1 mouse measured at 25 mg/kg for 1 to 24 hrs by HPLC-MS/MS analysis; format: ADME, organism-based; conditions: in vivo, time 1-24 hrs
# [30] = Cmax in CD-1 mouse measured at 25 mg/kg, po for 1 to 24 hrs by HPLC-MS/MS analysis; format: ADME, organism-based; conditions: in vivo, time 1-24 hrs
# [31] = AUC last in Sprague-Dawley rat measured at 100 mg/kg, po for 1 to 24 hrs by HPLC-MS/MS analysis; format: ADME, organism-based; conditions: in vivo, time 1-24 hrs
# [32] = tested on: NIH3T3; experiment: Antitumor activity against mouse 3T3 cells allografted in athymic nu/nu CD-1 mouse assessed as tumor regression at 75 mg/kg, po for 12 days relative to control; format: functional; conditions: time 12 day
# [33] = Elimination half life in Beagle dog measured at 2.5 mg/kg, iv for 1 to 24 hrs by HPLC-MS/MS analysis; format: ADME, organism-based, Canis lupus familiaris; conditions: in vivo, time 1-24 hrs, read-out: beta t1/2 (converted)
# [34] = Clearance in Beagle dog measured at 2.5 mg/kg, iv for 1 to 24 hrs by HPLC-MS/MS analysis; format: ADME, organism-based, Canis lupus familiaris; conditions: in vivo, time 1-24 hrs
# [35] = AUC (0 to infinity) in Beagle dog measured at 2.5 mg/kg, iv for 1 to 24 hrs by HPLC-MS/MS analysis; format: ADME, organism-based, Canis lupus familiaris; conditions: in vivo, time 1-24 hrs
# [36] = Clearance in Sprague-Dawley rat measured at 5 mg/kg, iv for 1 to 24 hrs by HPLC-MS/MS analysis; format: ADME, organism-based; conditions: in vivo, time 1-24 hrs
# Cytochrome P450 3A4, sequence (P08684 whole entry): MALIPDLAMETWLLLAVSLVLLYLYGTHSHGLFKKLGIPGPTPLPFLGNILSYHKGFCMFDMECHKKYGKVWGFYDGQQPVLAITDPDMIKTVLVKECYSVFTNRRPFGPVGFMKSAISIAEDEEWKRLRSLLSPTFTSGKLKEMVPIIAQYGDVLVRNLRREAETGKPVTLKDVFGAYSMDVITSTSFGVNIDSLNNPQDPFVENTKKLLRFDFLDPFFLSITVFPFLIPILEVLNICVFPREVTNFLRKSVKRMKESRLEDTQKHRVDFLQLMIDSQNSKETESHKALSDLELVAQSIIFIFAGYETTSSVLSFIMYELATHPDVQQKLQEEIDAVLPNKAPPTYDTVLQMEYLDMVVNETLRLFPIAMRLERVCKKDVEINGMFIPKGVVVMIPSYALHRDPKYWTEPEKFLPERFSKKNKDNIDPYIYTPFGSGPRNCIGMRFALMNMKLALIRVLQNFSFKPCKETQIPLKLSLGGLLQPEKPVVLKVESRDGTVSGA
# Cytochrome P450 2D6, sequence (P10635 whole entry): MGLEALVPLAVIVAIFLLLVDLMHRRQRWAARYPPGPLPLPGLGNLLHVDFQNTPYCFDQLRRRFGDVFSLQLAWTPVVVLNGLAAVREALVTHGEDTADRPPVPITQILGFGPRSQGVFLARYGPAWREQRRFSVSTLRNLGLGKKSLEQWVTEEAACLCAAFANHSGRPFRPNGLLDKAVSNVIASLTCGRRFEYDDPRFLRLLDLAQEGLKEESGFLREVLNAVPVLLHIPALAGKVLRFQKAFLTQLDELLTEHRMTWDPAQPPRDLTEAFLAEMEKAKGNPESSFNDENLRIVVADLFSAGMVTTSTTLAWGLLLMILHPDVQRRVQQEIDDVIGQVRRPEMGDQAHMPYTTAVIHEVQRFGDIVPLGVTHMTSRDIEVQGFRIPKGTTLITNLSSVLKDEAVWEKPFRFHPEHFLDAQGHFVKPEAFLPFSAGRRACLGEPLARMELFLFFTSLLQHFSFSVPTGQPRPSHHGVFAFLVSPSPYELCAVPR
smiles,measurement,setting,value
C[C@]1(O)C[C@@H](c2nc(-c3ccc4ccc(-c5ccccc5)nc4c3)c3c(N)nccn32)C1 [LINSITINIB],AUC(0-t),[1],6770 ng·h/mL
same,AUC(0-t),[2],42800 ng·h/mL
same,bioavailability,[3],92%
same,half-life,[4],128 min
same,half-life,[5],158 min
same,IC50,[6],> 10 µM
same,inhibition in vivo at 75 mg/kg,[7],80%
same,AUC(0-t),[8],87500 ng·h/mL
same,concentration at 24 h,[9],4.77 µM
same,bioavailability,[10],84%
same,Activity,[11],16%
same,inhibition in vivo at 25 mg/kg,[12],60%
same,clearance,[13],12 mL/min/kg
same,AUC(0-inf),[14],23100 ng·h/mL
same,Vd,[15],2.05 L/kg
same,Cmax,[16],3.42 µM
same,Vd,[17],4.3 L/kg
same,Activity,[18],Toxic
same,AUC(0-t),[19],317 µg·h/mL
same,IC50,[20],> 10 µM
same,bioavailability,[21],98%
same,inhibition in vivo at 75 mg/kg,[22],100%
same,AUC(0-t),[23],1330 ng·h/mL
same,IC50,[24],> 10 µM
same,bioavailability,[25],> 100%
same,Cmax,[26],10 µM
same,Activity,[27],0%
same,Vd,[28],0.79 L/kg
same,bioavailability,[29],100%
same,Cmax,[30],16 µM
same,AUC(0-t),[31],424 µg·h/mL
same,Activity,[32],55%
same,half-life,[33],70.8 min
same,clearance,[34],39 mL/min/kg
same,AUC(0-inf),[35],1070 ng·h/mL
same,clearance,[36],4 mL/min/kg
